Test results as given in PubChem BioAssay AID1963962 (Molecular Pharmacology Branch, DTP, NCI, 2024).

Tested on: 967376-340-R-J2-PDC multicell spheroid viability
Assay: Anticancer human tumor 967376-340-R-J2-PDC patient-derived colon adenocarcinoma cell line growth inhibition [PI3K]
Conditions: for IC50: curve of first compound; for viability, T/C: stronger effect = lower value
How it was run: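 Multi-cell spheroids combine tumor cells with HUVEC and human MSCs, treated with targeted agents alone or with inavolisib, alpelisib, duvelisib or copanlisib. Concentrations fall in half-log steps from at or near clinical Cmax, or from 10 microM where Cmax is unknown; viability read-out.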

[1] = second compound 0.0316 µM, first compound 0.0316 µM
[2] = second compound 0.0316 µM, first compound 0.1 µM
[3] = second compound 0.0316 µM, first compound 0.316 µM
[4] = second compound 0.0316 µM, first compound 1 µM
[5] = second compound 0.0316 µM, first compound 3.16 µM
[6] = second compound 0.0316 µM, first compound 10 µM
[7] = second compound 0.1 µM, first compound 0.0316 µM
[8] = second compound 0.1 µM, first compound 0.1 µM
[9] = second compound 0.1 µM, first compound 0.316 µM
[10] = second compound 0.1 µM, first compound 1 µM
[11] = second compound 0.1 µM, first compound 3.16 µM
[12] = second compound 0.1 µM, first compound 10 µM
[13] = second compound 0.316 µM, first compound 0.0316 µM
[14] = second compound 0.316 µM, first compound 0.1 µM
[15] = second compound 0.316 µM, first compound 0.316 µM
[16] = second compound 0.316 µM, first compound 1 µM
[17] = second compound 0.316 µM, first compound 3.16 µM
[18] = second compound 0.316 µM, first compound 10 µM
[19] = second compound 1 µM, first compound 0.0316 µM
[20] = second compound 1 µM, first compound 0.1 µM
[21] = second compound 1 µM, first compound 0.316 µM
[22] = second compound 1 µM, first compound 1 µM
[23] = second compound 1 µM, first compound 3.16 µM
[24] = second compound 1 µM, first compound 10 µM
[25] = second compound 3.16 µM, first compound 0.0316 µM
[26] = second compound 3.16 µM, first compound 0.1 µM
[27] = second compound 3.16 µM, first compound 0.316 µM
[28] = second compound 3.16 µM, first compound 1 µM
[29] = second compound 3.16 µM, first compound 3.16 µM
[30] = second compound 3.16 µM, first compound 10 µM
[31] = second compound 10 µM, first compound 0.0316 µM
[32] = second compound 10 µM, first compound 0.1 µM
[33] = second compound 10 µM, first compound 0.316 µM
[34] = second compound 10 µM, first compound 1 µM
[35] = second compound 10 µM, first compound 3.16 µM
[36] = second compound 10 µM, first compound 10 µM
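Further: spheroids exposed to agents for 7 days before read-out.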
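Wherever viability, T/C is given: luminescence used as surrogate of cell viability.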

## Cn1ncc(Cl)c1-c1cc(C(=O)NC(CN)Cc2cccc(F)c2)sc1Cl (centres undefined) + Cc1nc(NC(=O)N2CCCC2C(N)=O)sc1-c1ccnc(C(C)(C)C(F)(F)F)c1
Second compound 0.0316 µM
  IC50: > 10 µM
Second compound 0.1 µM
  IC50: 7.44 µM
Second compound 0.316 µM
  IC50: > 10 µM
Second compound 1 µM
  IC50: 4.6 µM
Second compound 3.16 µM
  IC50: 5.42 µM
Second compound 10 µM
  IC50: 0.366 µM
[1]
  viability, T/C: 108%
[2]
  viability, T/C: 79%
[3]
  viability, T/C: 77.8%
[4]
  viability, T/C: 72.3%
[5]
  viability, T/C: 61.3%
[6]
  viability, T/C: 71.4%
[7]
  viability, T/C: 75.6%
[8]
  viability, T/C: 91%
[9]
  viability, T/C: 76.5%
[10]
  viability, T/C: 82.6%
[11]
  viability, T/C: 75.2%
[12]
  viability, T/C: 41.1%
[13]
  viability, T/C: 72.8%
[14]
  viability, T/C: 82%
[15]
  viability, T/C: 78.1%
[16]
  viability, T/C: 89.6%
[17]
  viability, T/C: 61.6%
[18]
  viability, T/C: 59.9%
[19]
  viability, T/C: 62.2%
[20]
  viability, T/C: 83.4%
[21]
  viability, T/C: 60.5%
[22]
  viability, T/C: 65%
[23]
  viability, T/C: 55.3%
[24]
  viability, T/C: 38.9%
[25]
  viability, T/C: 52.2%
[26]
  viability, T/C: 55.9%
[27]
  viability, T/C: 53.2%
[28]
  viability, T/C: 61.3%
[29]
  viability, T/C: 52%
[30]
  viability, T/C: 42.4%
[31]
  viability, T/C: 60.4%
[32]
  viability, T/C: 55.6%
[33]
  viability, T/C: 51.2%
[34]
  viability, T/C: 40.8%
[35]
  viability, T/C: 46.7%
[36]
  viability, T/C: 32.8%

## Cn1nccc1Nc1nccc(-c2ccn(C(CO)c3ccc(Cl)c(F)c3)c(=O)c2)n1 (centres undefined) + Cc1nc(NC(=O)N2CCCC2C(N)=O)sc1-c1ccnc(C(C)(C)C(F)(F)F)c1
Second compound 0.0316 µM
  IC50: > 10 µM
Second compound 0.1 µM
  IC50: > 10 µM
Second compound 0.316 µM
  IC50: > 10 µM
Second compound 1 µM
  IC50: > 10 µM
Second compound 3.16 µM
  IC50: > 10 µM
Second compound 10 µM
  IC50: < 0.0316 µM
[1]
  viability, T/C: 66.3%
[2]
  viability, T/C: 104%
[3]
  viability, T/C: 97.2%
[4]
  viability, T/C: 83.5%
[5]
  viability, T/C: 87.3%
[6]
  viability, T/C: 85.7%
[7]
  viability, T/C: 70.2%
[8]
  viability, T/C: 67%
[9]
  viability, T/C: 85.1%
[10]
  viability, T/C: 76.7%
[11]
  viability, T/C: 72.4%
[12]
  viability, T/C: 75.5%
[13]
  viability, T/C: 65.4%
[14]
  viability, T/C: 70.9%
[15]
  viability, T/C: 63.8%
[16]
  viability, T/C: 82%
[17]
  viability, T/C: 84.2%
[18]
  viability, T/C: 60.7%
[19]
  viability, T/C: 66.6%
[20]
  viability, T/C: 61%
[21]
  viability, T/C: 60.1%
[22]
  viability, T/C: 67.8%
[23]
  viability, T/C: 64.7%
[24]
  viability, T/C: 53.5%
[25]
  viability, T/C: 46.1%
[26]
  viability, T/C: 61.4%
[27]
  viability, T/C: 56.3%
[28]
  viability, T/C: 58.5%
[29]
  viability, T/C: 60.8%
[30]
  viability, T/C: 77.1%
[31]
  viability, T/C: 39.9%
[32]
  viability, T/C: 47.6%
[33]
  viability, T/C: 42.2%
[34]
  viability, T/C: 36.1%
[35]
  viability, T/C: 53.7%
[36]
  viability, T/C: 32.3%
